# According to PMC12430830, “Discovery of a Novel Cyclopeptide as Tyrosinase Inhibitor for Skin Lightening” (Skin Research and Technology, 2025):
# Values joined by “and” are separate entries in the source; they are usually repeats but may differ in a detail not shown here. Equal values may be shown once. Read-outs that look alike come from different tables or passages of the source.
# Experiments:
# human melanocyte cells [1] = details: traditional skin‐lightening agent, at similar concentrations; general statement, no reference given; cited from earlier work
# human melanocyte cells [2] = test: Melanin content in melanocytes; type: cell-based; details: n = 3
# Protocol: (§1) Human melanocytes (Batch number: MC210817; Guangdong Biocell Biotechnology Co. Ltd.) were cultured in DMEM/F12 medium supplemented with 20% FBS (Hyclone) and 100 U/mL penicillin at 37°C with 5% CO2 atmosphere.
# Upon reaching 80%–90% confluence, human melanocyte cells were dissolved with 0.25% trypsin to create a single‐cell suspension. Then, the cells were seeded in 6‐well plates at 200 000 cells per well and cultured for 12 h in a 37°C humidified incubator (5% CO2, V/V). When the confluence of cells reached 40%–60%, they were incubated with specific peptides or the positive control for 24 h. Following the incubation period, the supernatant was removed and the adherent cells were washed with PBS before being dispersed using trypsin (700 µL/well, 0.25%). The dispersed cells were collected and centrifuged at 10 000 rpm for 10 min. The cell pellet from each well was then treated with a mixture of distilled water (200 µL), anhydrous ethanol (500 µL), and ether (500 µL). The mixture was vortexed and allowed to stand at room temperature for 20 min, followed by centrifugation at 3000 rpm for 5 min. The precipitate was dissolved in 1 mL of 1 M NaOH containing 10% DMSO, then incubated at 80°C in a water bath for 40 minutes. After incubation, the solution was transferred to a 96‐well culture plate for optical density measurement at 405 nm. Each analysis was performed in triplicate and results were expressed as mean ± standard deviation (SD).
# tyrosinase = test: Tyrosinase inhibition assay (intracellular tyrosinase, lysate of treated melanocytes, L‐DOPA); type: cell-based, human; details: cells treated 24 h, 475 nm, n = 3
# Protocol: The inhibition of tyrosinase activity was assessed according to the reported method. The 6‐well plates were incubated at 37°C with human melanocyte cells at a density of 2.5×10^5 cells per well in a humidified atmosphere (5% CO2) for 24 h. Subsequently, these cells were exposed to glabridin (0.00625%, V/V) as the positive control, along with other tested compounds. Following treatment, cells were incubated at 37°C for 24 h using identical conditions. After treatment, cells in each well were rinsed with a PBS buffer solution (500 µL) and lysed with a lysate buffer (100 µL containing 0.5% sodium deoxycholate) at approximately 0°C for 1 h. The resulting cell lysate was then centrifuged at 12 000 rpm at 4°C for 20 min. The protein concentration in the supernatant was quantified by a BCA Assay Kit (Beyotime Biotechnology, China). Samples were transferred to a 96‐well plate in a total volume of 100 µL ([…] of lysate supernatant and 20 µL of 0.1% L‐DOPA) and incubated for 60 min at 37°C. The absorbance was measured at 475 nm using a Synergy multimode reader (BioTek Corporation, USA).
# human melanocyte cells [3] = test: MTT cytotoxicity / growth inhibition in human melanocytes; type: cell-based; details: 24 h, n = 3
# Protocol: as §1
# For cytotoxicity, evaluation of peptides on human melanocyte cells was assessed using the standard MTT assay. Cells were seeded in 96‐well plates at a density of 10 000 cells per well and incubated for 12 h under standard culture conditions. […] A negative control group (culture medium containing 10% Dimethyl sulfoxide (DMSO), v/v) was included. Post‐treatment, 0.5 mg/mL MTT reagent was added to each well, followed by 4 h of incubation at 37°C. Formazan crystals formed in viable cells were dissolved in 150 µL DMSO, and absorbance was measured at 490 nm using a Synergy multimode reader (BioTek, USA). Each concentration was tested in triplicate. Statistical significance was determined via one‐way ANOVA (GraphPad Prism 5). All experiments were conducted in triplicate (n = 3).
molecule,measurement,setting,value
Oc1ccc(O)cc1 [hydroquinone],cytotoxicity,human melanocyte cells [1],exhibit cytotoxic effects
Cyclo(Gln‐Gly‐Pro‐Gln‐Gly‐Pro) (head to tail) [CHP‐9],inhibitory effect on melanin production compared with glabridin,human melanocyte cells [2]; CHP‐9 1% versus glabridin 0.00625% v/v,comparable to glabridin
same,melanin content after treatment,"human melanocyte cells [2]; CHP‐9 1%, 24 h, OD 405 nm, mean ± SD, untreated control 30.90 ± 1.13 µg/mL",~23.51 µg/mL and 23.51 ± 1.14 µg/mL
same,tyrosinase inhibition rate,"tyrosinase; CHP‐9 1%, lysate with 0.1% L‐DOPA 60 min 37°C",28.57%
same,cell viability,human melanocyte cells [3]; CHP‐9 across effective concentrations,> 90%
same,cytotoxicity,human melanocyte cells [3]; at tested concentrations (0.0781–10 mg/mL),noncytotoxic to human melanocytes
CC1(C)C=Cc2c(ccc3c2OC[C@@H](c2ccc(O)cc2O)C3)O1 [glabridin],inhibition of melanin production,"human melanocyte cells [2]; glabridin 0.00625% v/v, 24 h",strong inhibitory effect on melanin production
same,tyrosinase inhibition rate,"tyrosinase; glabridin 0.00625% v/v (positive control), L‐DOPA 60 min 37°C",approximately 14%
NC[C@H]1CC[C@H](C(=O)O)CC1 [tranexamic acid],"melanin reduction, single compounds","human melanocyte cells [2]; tranexamic acid 2.5 mg/mL, nonapeptide‐1 0.3% v/v, 24 h","melanin‐reducing effects, though not as strongly as CHP‐9 alone"
same,tyrosinase inhibition rate,"tyrosinase; tranexamic acid 2.5 mg/mL, L‐DOPA 60 min 37°C",10.71%
same,change in cell viability,"human melanocyte cells [3]; tranexamic acid at higher concentrations (5 and 10 mg/mL), not statistically significant",A slight reduction in cell viability
